In ChEMBL document CHEMBL5335789, “Tea-break with epigallocatechin gallate derivatives - Powerful polyphenols of great potential for medicine” (Eur J Med Chem, 2023):
Each block holds one compound with its values, some of them ahead of it.

How the values were obtained:
MDA-MB-231 [1] = assay: Anticancer activity against human MDA-MB-231 cells assessed as reduction in cell viability measured after 72 hrs by MTT assay; assay type: functional
MDA-MB-231 [2] = assay: Cytotoxicity against human MDA-MB-231 cells assessed as cell growth inhibition incubated for 48 hrs by SRB assay; assay type: functional, cell-based; settings: MDA-MB-231, 48 h
HCT-116 = assay: Antiproliferative activity against human HCT-116 cells assessed as reduction in cell viability incubated for 24 hrs by MTT assay; assay type: functional, cell-based; settings: HCT-116, 24 h
[3] = Inhibition of Streptococcus sobrinus glycosyl transferase
NCI-H441 [4] = assay: Antiproliferative activity against human NCI-H441 cells assessed as reduction in cell viability incubated for 48 hrs by WST-8 assay; assay type: functional, cell-based; settings: NCI-H441, 48 h
A549 [5] = assay: Antiproliferative activity against human A549 cells expressing wild type EGFR assessed as reduction in cell viability incubated for 48 hrs by MTT assay; assay type: functional, cell-based; settings: A549, 48 h
LNCaP = assay: Antiproliferative activity against human LNCaP assessed as reduction in cell viability incubated for 72 hrs by MTT assay; assay type: functional, cell-based
U-266 = assay: Antiproliferative activity against human U-266 cells assessed as reduction in cell viability incubated for 96 hrs by ATPlite assay; assay type: functional, cell-based; settings: U-266, 96 h
HL-60 = assay: Cytotoxicity against human HL-60 cells assessed as reduction in cell growth incubated for 48 hrs by MTT assay; assay type: functional, cell-based; settings: HL-60, 48 h
SMMC-7721 = assay: Cytotoxicity against human SMMC-7721 cells assessed as reduction in cell viability incubated for 48 hrs by MTT assay; assay type: functional, cell-based; settings: SMMC-7721, 48 h
A549 [6] = assay: Cytotoxicity against human A549 cells assessed as reduction in cell viability incubated for 48 hrs by MTT assay; assay type: functional, cell-based; settings: A549, 48 h
MCF7 [7] = assay: Cytotoxicity against human MCF7 cells assessed as reduction in cell viability incubated for 48 hrs by MTT assay; assay type: functional, cell-based; settings: MCF7, 48 h
BEAS-2B = assay: Cytotoxicity against human BEAS-2B assessed as reduction in cell viability incubated for 72 hrs by MTT assay; assay type: functional, cell-based
MDA-MB-231 [8] = assay: Antitumor activity against human MDA-MB-231 cells xenografted in athymic nude mouse assessed as the inhibition of tumor growth at 50 mg/kg, sc administered daily once for 31 days relative to control; assay type: functional; parameters: scale not given: the % may be the effect or the level left; settings: time 31 day
MCF7 [9] = assay: Antiproliferative activity against human MCF7 cells assessed as reduction in cell viability incubated for 72 hrs by MTT assay; assay type: functional, cell-based; settings: MCF7, 72 h
NCI-H292 = assay: Antiproliferative activity against human NCI-H292 cells expressing wild type EGFR assessed as reduction in cell viability incubated for 48 hrs by MTT assay; assay type: functional, cell-based; settings: NCI-H292, 48 h
NCI-H441 [10] = assay: Antiproliferative activity against human NCI-H441 cells expressing wild type EGFR assessed as reduction in cell viability incubated for 48 hrs by MTT assay; assay type: functional, cell-based; settings: NCI-H441, 48 h
[11] = Antiproliferative activity against human NCI-H1781 cells expressing wild type EGFR assessed as reduction in cell viability incubated for 48 hrs by MTT assay; assay type: functional, cell-based; settings: NCI-H1781, 48 h
U-937 [12] = assay: Antiproliferative activity against human U-937 cells assessed as cell growth inhibition measured after 72 hrs; assay type: functional, cell-based; settings: U-937, 72 h
U-937 [13] = assay: Antiproliferative activity against human U-937 cells measured upto 72 hrs; assay type: functional, cell-based; settings: U-937, 72 h
Jurkat = assay: Antiproliferative activity against human Jurkat T cells assessed as inhibition of cell growth at 50 uM incubated for 24 hrs relative to control; assay type: functional; parameters: scale not given: the % may be the effect or the level left

SMILES: CC(=O)Oc1cc(OC(C)=O)c2c(c1)O[C@H](c1cc(OC(C)=O)c(OC(C)=O)c(OC(C)=O)c1)[C@H](OC(=O)c1cccc(F)c1)C2
Activity (MDA-MB-231 [1]): 70%

SMILES: O=C(Oc1cc(OC(=O)c2cc(O)c(O)c(O)c2)c2ccccc2c1)c1cc(O)c(O)c(O)c1
IC50 (MDA-MB-231 [2]): 77 µM

IC50 (HCT-116): 120 µM
SMILES: O=C(O[C@@H]1Cc2c(O)cc(O)cc2O[C@@H]1c1cc(O)c(=O)c2c(O)c(O)cc([C@H]3Oc4cc(O)cc(O)c4C[C@H]3OC(=O)c3cc(O)c(O)c(O)c3)c2c1)c1cc(O)c(O)c(O)c1 [THEAFLAVIN DIGALLATE]

IC50 [3]: 14 µM
SMILES: O=c1c(O)cc([C@H]2Oc3cc(O)cc(O)c3C[C@H]2O)cc2cc(O)c(O)c(O)c12

SMILES: O=C(Oc1ccc(OC(=O)c2cc(O)c(O)c(O)c2)c2ccccc12)c1cc(O)c(O)c(O)c1
IC50 (MDA-MB-231 [2]): 104 µM

IC50 (NCI-H441 [4]): 100 µM | IC50 (A549 [5]): 30 µM
SMILES: O=C(O[C@@H]1Cc2c(OCc3cnnn3[C@H]3O[C@H](CO)[C@@H](O)[C@H](O)[C@H]3O)cc(O)cc2O[C@@H]1c1cc(O)c(O)c(O)c1)c1cc(O)c(O)c(O)c1

IC50 (LNCaP): 13 µM
SMILES: O=C(O[C@@H]1Cc2c(F)cc(F)cc2O[C@@H]1c1ccc(O)c(O)c1)c1cc(O)c(O)c(O)c1

SMILES: [N-]=[N+]=NC[C@@H]1O[C@H](c2c(O)cc(O)c3c2O[C@H](c2cc(O)c(O)c(O)c2)[C@H](OC(=O)c2cc(O)c(O)c(O)c2)C3)[C@H](O)[C@@H](O)[C@@H]1O
IC50 (U-266): 15 µM

SMILES: CCCC(=O)OC[C@H]1O[C@@H](Oc2c(O)cc(C(=O)O[C@@H]3Cc4c(O)cc(O)cc4O[C@@H]3c3cc(O)c(O)c(O)c3)cc2O)[C@H](OC(=O)CCC)[C@@H](OC(=O)CCC)[C@H]1OC(=O)CCC
IC50 (HL-60): 22.9 µM | IC50 (SMMC-7721): 22.9 µM | IC50 (A549 [6]): 22.9 µM | IC50 (MCF7 [7]): 22.9 µM | IC50 (BEAS-2B): 40 µM

SMILES: CC(=O)Oc1cc(OC(C)=O)c2c(c1)O[C@H](c1cc(OC(C)=O)c(OC(C)=O)c(OC(C)=O)c1)[C@H](OC(=O)c1cc(OC(C)=O)c(OC(C)=O)c(OC(C)=O)c1)C2
Activity (MDA-MB-231 [8]): 54%

IC50 (MCF7 [9]): 770 nM
SMILES: COc1cccc(C(=O)O[C@H]2COc3cc(OC)cc(OC)c3C2)c1

IC50 (NCI-H292): 30 µM | IC50 (NCI-H441 [10]): 30 µM | IC50 (A549 [5]): 30 µM
SMILES: O=C(O[C@@H]1Cc2c(O)cc(O)cc2O[C@@H]1c1cc(O)c(O)c(O)c1)c1cc(O)c(OCc2cn([C@H]3O[C@H](CO)[C@@H](O)[C@H](O)[C@H]3O)nn2)c(O)c1
IC50 [11]: 30 µM

IC50 (U-937 [12]): 25 µM | IC50 (U-937 [13]): 720 nM
SMILES: O=C(Nc1ccccc1NC(=O)c1ccc(O)c(O)c1)c1ccc(O)c(O)c1

SMILES: O=C(Oc1cc(O)c2ccccc2c1)c1cc(O)c(O)c(O)c1
IC50 (MDA-MB-231 [2]): 41 µM

SMILES: CC(=O)Oc1cc(OC(C)=O)c2c(c1)O[C@H](c1cc(OC(C)=O)c(OC(C)=O)c(OC(C)=O)c1)[C@H](OC(=O)c1ccc(F)c(F)c1)C2
Activity (MDA-MB-231 [1]): 33% | Activity (Jurkat): 90%
